From paper PMC11323243, “Novel Inhibitors of SARS-CoV-2 RNA Identified through Virtual Screening” (Journal of Chemical Information and Modeling, 2024)
“Also recorded” adds a separate entry of the source.

Assays:
[1] = tested on: Omicron (BA.1) SARS-CoV-2; experiment: Antiviral activity, plaque reduction assay on Vero E6 cells; type: cell-based; details: CC50/EC50, Vero E6 cells
[2] = Cell viability (MTT) after 3 days of exposure; type: cell-based; details: African green monkey, Vero E6 cells, read-out: CC50, concentration reducing cell viability by 50%
[3] = tested on: −1PRF element of SARS-CoV-2; experiment: Dual-luciferase assay measuring frameshift efficiency; type: cell-based; details: Vero E6 cells; for effect on frameshift efficiency (in words): dual-luciferase assay; for reduction of frameshift efficiency: single nontoxic dose
[4] = tested on: −1PRF element of SARS-CoV-2; details: previously identified; cited from earlier work

Compound	SI, selective index [1]	CC50 at 3 days [2] [µM]	effect on frameshift efficiency (in words) [3]	other results
NCCc1ccc(CN2CCC(O)(c3cccc(C(F)(F)F)c3)CC2)cc1 [Compound 188]	4.69	80.6	–	–
Cc1cc2c(cc1CN1CC(CO)C(CN3CCCCCC3)C1)OCCO2 (centres unmarked) [Compound 194]	>3.46	> 100	significant reduction in frameshift efficiency	reduction of frameshift efficiency [3]: 23%
OC1CN(Cc2cccc3cc[nH]c23)CCN(c2ccncc2)C1 (centres unmarked) [Compound 229]	3.47	93	–	–
OCC1CN(Cc2cc3c(cc2Cl)OCO3)CC1CN1CCCCCC1 (centres unmarked) [Compound 269]	–	–	nonsignificant reduction of frameshift efficiency; also recorded: reduction in frameshift, though not statistically significant	–
Cc1cc2c(cc1CN1CC(CO)C(CN3CCN(C)CC3)C1)OCCO2 (centres unmarked) [Compound 782]	–	–	significant and improved reduction of frameshift efficiency compared to 194; also recorded: dose-dependent	reduction of frameshift efficiency [3]: 38%
OC1CCCN(C2CCN(Cc3ncc[nH]3)CC2)C1 (centres unmarked) [Compound 21256088]	–	> 100	–	–
Cc1nc(CN)cc(N2CCC(C(O)c3nccn3C)CC2)n1 (centres unmarked) [Compound 32807865]	–	> 100	–	–
CN[C@@H]1[C@@H](O)[C@@H](O[C@@H]2[C@@H](O)[C@H](O[C@H]3O[C@H]([C@@H](C)O)[C@@H](O)[C@H](O)[C@H]3N)[C@@H](N)C[C@H]2N)OC[C@]1(C)O [geneticin]	–	–	–	inhibition of the −1PRF of SARS-CoV-2 (in words) [4]: specific inhibition of the −1PRF of SARS-CoV-2
CCNCC1CCN(c2c(F)cc3c(=O)c(C(=O)O)cn(CC)c3c2F)C1 (centres unmarked) [merafloxacin]	–	–	–	inhibition of the −1PRF of SARS-CoV-2 (in words) [4]: specific inhibition of the −1PRF of SARS-CoV-2
Clc1ccc2c(N3CCN(CCCN4CCN(c5ccnc6cc(Cl)ccc56)CC4)CC3)ccnc2c1 [piperaquine, reference compound]	0.49	5.66	–	–
